Columns and labels:
Human GIPR = target: T1, Human GIPR (Homo sapiens, UniProt P48546); test: cAMP accumulation assay, GIPR; assay type: cell-based
T1 construct: expressed in transfected cells; host or cells: CHO cells
T1 sequence (P48546 22-466): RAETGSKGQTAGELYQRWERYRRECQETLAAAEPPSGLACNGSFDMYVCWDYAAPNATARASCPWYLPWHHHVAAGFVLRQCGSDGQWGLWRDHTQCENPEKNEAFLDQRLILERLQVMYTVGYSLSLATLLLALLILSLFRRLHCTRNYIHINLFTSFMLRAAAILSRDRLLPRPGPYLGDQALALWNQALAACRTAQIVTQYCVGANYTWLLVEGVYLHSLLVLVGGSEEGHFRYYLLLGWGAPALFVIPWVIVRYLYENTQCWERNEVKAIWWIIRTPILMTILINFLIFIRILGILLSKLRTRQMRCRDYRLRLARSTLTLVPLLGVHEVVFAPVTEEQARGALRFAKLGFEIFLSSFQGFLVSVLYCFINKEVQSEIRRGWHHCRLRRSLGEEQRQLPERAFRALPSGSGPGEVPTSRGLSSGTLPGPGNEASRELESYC
Method: These cells were then resuspended in 5 mL of the assay buffer, and their concentration was determined using a Vi-Cell Counter. […] Samples were subsequently added to the assay plate along with ECHO555. […] A volume of 10 µL of the cell suspension was added to the assay plate, with a density of 1000 cells/well for GLP-1R testing and 2000 cells/well for GIPR testing. The assay plate was then incubated in a 23°C incubator for 30 minutes. A starting concentration of 800 nM was used to prepare the cAMP standard curve, followed by a 4-fold 10-point serial dilution. These serially diluted cAMP standards were added to the assay plate at a volume of 10 µL/well. Subsequently, 10 µL of the cAMP detection solution was added to the assay plate, and the plate was incubated at room temperature for 1 hour, shielded from direct light. […] For data analysis, each data point’s cAMP level (nM) was calculated using the established cAMP standard curve. The percentage activity for each data point was determined using the formula: % Activity = (cAMP level of testing sample - average cAMP level of low control) / ([…] cAMP level of high control - average cAMP level of […] control) × 100%. Additionally, the ‘log(agonist) vs. response – variable slope’ model in GraphPad Prism 5.0 was used to fit the dose-response curve of each sample and calculate the EC50 value.

in vivo = test: in vivo; set-up: species or system cynomolgus monkeys; settings: cynomolgus monkey
Method: In this trial, 24 cynomolgus monkeys (12 of each sex) were provided by Hainan Jingang Biotechnology Co., Ltd. Each animal was identified using a unique code on the chest and cage box, and its health status was confirmed by the veterinary team of WuXi AppTec Suzhou Drug Development Co., Ltd. before use. Temperature and humidity were monitored in the animal room, with data recorded daily to ensure that the relative humidity was maintained at 40%–70% and the temperature stayed between 18–26°C. The ventilation was set to 10–20 exchanges per hour, and a 12-hour alternating light-dark cycle was adopted. Regular growth feed was provided daily, and the animals had constant access to water. Additionally, the test animals were provided with fruit daily to meet their nutritional needs. The 24 cynomolgus monkeys were randomly divided into four groups, with three monkeys of each sex per group. Animals in group 1 received a single intravenous bolus of 0.1 mg/kg BGM0504, while groups 2, 3, and 4 received a single subcutaneous injection of 0.2, 1, and 5 mg/kg BGM0504 in 20 mM citrate buffer solution (pH=7.0±0.2), respectively. Blood samples for pharmacokinetic (PK) analysis were collected at specific time points (0.5, 1, 4, 6, 8, 12, 24, 48, 72, 96, 120, 168, 240, and 312 hours) before and after dosing. At the same time, blood glucose levels were measured at 0.5, 4, 24, 48, and 72 hours after dosing. The collected blood samples were transferred to labeled commercial tubes containing K2-EDTA (0.85–1.15 mg), gently inverted several times to ensure mixing, and immediately placed on wet ice. Within 60 minutes of blood collection, the samples were centrifuged for 10 minutes at 3200×g at 2°–8°C. Plasma was divided into two aliquots (one for analysis and one for later use), transferred to labeled polypropylene tubes, immediately snap-frozen vertically in dry ice, and stored in an ultra-low temperature freezer at -60°C or lower until transported to the Drug Evaluation Department of WuXi AppTec Shanghai Drug Development Co., Ltd. for LC-MS/MS analysis.

[1] = target: T2, Human Serum Albumin (HSA) protein (Homo sapiens, UniProt P02768); test: biochemical; assay type: binding
T2 construct: purified Human ALB (25–609)-His was immobilized
T2 sequence (P02768 25-609): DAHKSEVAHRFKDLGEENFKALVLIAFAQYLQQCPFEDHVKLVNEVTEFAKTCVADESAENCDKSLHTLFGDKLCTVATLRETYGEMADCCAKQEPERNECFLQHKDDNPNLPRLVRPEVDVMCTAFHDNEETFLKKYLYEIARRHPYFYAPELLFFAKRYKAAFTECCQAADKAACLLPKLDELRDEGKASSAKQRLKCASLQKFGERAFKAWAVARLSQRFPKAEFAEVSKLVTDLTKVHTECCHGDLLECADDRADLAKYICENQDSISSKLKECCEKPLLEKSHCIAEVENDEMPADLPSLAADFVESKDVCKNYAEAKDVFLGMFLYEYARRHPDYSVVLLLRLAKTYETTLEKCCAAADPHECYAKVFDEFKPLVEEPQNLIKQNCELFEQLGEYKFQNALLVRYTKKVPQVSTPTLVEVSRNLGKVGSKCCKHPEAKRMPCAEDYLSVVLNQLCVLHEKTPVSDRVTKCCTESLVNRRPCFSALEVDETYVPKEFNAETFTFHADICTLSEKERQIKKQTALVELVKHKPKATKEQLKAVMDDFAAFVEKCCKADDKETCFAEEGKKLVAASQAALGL
Text: The buffer used was PBST (PBS with 0.02% Tween 20).

SMILES: CC[C@H](C)[C@H](NC(=O)[C@H](CC(C)C)NC(=O)[C@H](Cc1c[nH]c2ccccc12)NC(=O)[C@H](CCC(N)=O)NC(=O)[C@@H](NC(=O)[C@H](Cc1ccccc1)NC(=O)[C@H](C)NC(=O)[C@H](CCCCN)NC(=O)[C@H](CCC(N)=O)NC(=O)[C@H](C)NC(=O)[C@@H](NC(=O)[C@H](CCCCN)NC(=O)[C@H](CC(=O)O)NC(=O)[C@H](CC(C)C)NC(=O)C(C)(C)NC(=O)[C@@H](NC(=O)[C@H](CO)NC(=O)[C@H](Cc1ccc(O)cc1)NC(=O)[C@H](CC(=O)O)NC(=O)[C@H](CO)NC(=O)[C@@H](NC(=O)[C@H](Cc1ccccc1)NC(=O)[C@@H](NC(=O)CNC(=O)[C@H](CCC(=O)O)NC(=O)C(C)(C)NC(=O)[C@@H](N)Cc1ccc(O)cc1)[C@@H](C)O)[C@@H](C)O)[C@@H](C)CC)[C@@H](C)CC)C(C)C)C(=O)N[C@@H](C)C(=O)NCC(=O)NCC(=O)N1CCC[C@H]1C(=O)N[C@@H](CO)C(=O)N[C@@H](CO)C(=O)NCC(=O)N[C@@H](C)C(=O)N1CCC[C@H]1C(=O)N1CCC[C@H]1C(=O)N1CCC[C@H]1C(=O)N[C@@H](CO)C(=O)N[C@@H](CCCCNC(=O)COCCOCCOCCNC(=O)COCCOCCOCCNC(=O)CC[C@H](NC(=O)CCCCCCCCCCCCCCCCCCC(=O)O)C(=O)O)C(N)=O [BGM0504]
- EC50 (Human GIPR): 0.182 nM
- Emax (Human GIPR; CHO): 106 ± 7.9%
- AUC(0-inf) (in vivo; both sexes, iv, 0.1 mg/kg): 81.1 µg·h/mL
- AUC(0-t) (in vivo; both sexes, iv, 0.1 mg/kg): 80.4 µg·h/mL
- C0 (in vivo; both sexes, iv, 0.1 mg/kg): 2860 ± 261 ng/mL
- Vd (in vivo; both sexes, iv, 0.1 mg/kg): 0.0608 ± 0.005 L/kg
- clearance (in vivo; both sexes, iv, 0.1 mg/kg): 1.24 ± 0.132 mL/h/kg
- half-life (in vivo; both sexes, iv, 0.1 mg/kg): 37.9 ± 2.5 h
- AUC(0-inf) (in vivo; both sexes, sc, 0.2 mg/kg): 113 µg·h/mL
- AUC(0-t) (in vivo; both sexes, sc, 0.2 mg/kg): 113 µg·h/mL
- Cmax (in vivo; both sexes, sc, 0.2 mg/kg): 1440 ± 109 ng/mL
- Tmax (in vivo; both sexes, sc, 0.2 mg/kg): 16 ± 6.2 h
- bioavailability (in vivo; both sexes, sc, 0.2 mg/kg): 69.7%
- half-life (in vivo; both sexes, sc, 0.2 mg/kg): 38.7 ± 1.8 h
- AUC(0-inf) (in vivo; both sexes, sc, 1 mg/kg): 491 µg·h/mL
- AUC(0-t) (in vivo; both sexes, sc, 1 mg/kg): 488 µg·h/mL
- Cmax (in vivo; both sexes, sc, 1 mg/kg): 5970 ± 1090 ng/mL
- Tmax (in vivo; both sexes, sc, 1 mg/kg): 22 ± 14 h
- bioavailability (in vivo; both sexes, sc, 1 mg/kg): 60.5%
- half-life (in vivo; both sexes, sc, 1 mg/kg): 41.7 ± 2.9 h
- AUC(0-inf) (in vivo; both sexes, sc, 5 mg/kg): 2740 µg·h/mL
- AUC(0-t) (in vivo; both sexes, sc, 5 mg/kg): 2720 µg·h/mL
- Cmax (in vivo; both sexes, sc, 5 mg/kg): 33500 ng/mL
- Tmax (in vivo; both sexes, sc, 5 mg/kg): 20 ± 6.2 h
- bioavailability (in vivo; both sexes, sc, 5 mg/kg): 67.6%
- half-life (in vivo; both sexes, sc, 5 mg/kg): 43.4 ± 5.9 h
- Tmax (in vivo): 16 to 22 h
- AUC0-24 (in vivo; iv, 0.1 mg/kg): 34.6 µg·h/mL
- AUC0–last (as headed in Table 1) (in vivo; iv, 0.1 mg/kg): 34,600 ± 2470 ng h/mL
- AUC0–∞ (as headed in Table 1) (in vivo; iv, 0.1 mg/kg): 80,400 ± 7880 ng h/mL
- AUC0-24 (in vivo; sc, 0.2 mg/kg): 26.1 µg·h/mL
- AUC0–last (as headed in Table 1) (in vivo; sc, 0.2 mg/kg): 26,100 ± 1740 ng h/mL
- AUC0–∞ (as headed in Table 1) (in vivo; sc, 0.2 mg/kg): 113,000 ± 7940 ng h/mL
- AUC0-24 (in vivo; sc, 1 mg/kg): 109 µg·h/mL
- AUC0–last (as headed in Table 1) (in vivo; sc, 1 mg/kg): 109,000 ± 21,900 ng h/mL
- AUC0–∞ (as headed in Table 1) (in vivo; sc, 1 mg/kg): 488,000 ± 51,200 ng h/mL
- AUC0-24 (in vivo; sc, 5 mg/kg): 603 µg·h/mL
- AUC0–last (as headed in Table 1) (in vivo; sc, 5 mg/kg): 603,000 ± 94,200 ng h/mL
- AUC0–∞ (as headed in Table 1) (in vivo; sc, 5 mg/kg): 2,720,000 ± 246,000 ng h/mL
- Kd [1]: 73 nM
